The results in this text go back to ChEMBL document CHEMBL1144811, “Design and synthesis of morpholine derivatives. SAR for dual serotonin & noradrenaline reuptake inhibition” (Bioorg Med Chem Lett, 2008).

Active and inactive are the calls of the source. No cut-off for these calls is given here. Bounds are passed on as bounds.

Data set [1] addresses Sodium-dependent serotonin transporter (Homo sapiens, UniProt P31645). The experiment in a line: biochemical.
Description: Inhibition of [3H]citalopram uptake at human 5HTT expressed in HEK293 cells
The target of data set [2] is T1, Sodium-dependent dopamine transporter (Homo sapiens, UniProt Q01959). The conditions noted are these: hek293.
T1 sequence (Q01959 whole entry): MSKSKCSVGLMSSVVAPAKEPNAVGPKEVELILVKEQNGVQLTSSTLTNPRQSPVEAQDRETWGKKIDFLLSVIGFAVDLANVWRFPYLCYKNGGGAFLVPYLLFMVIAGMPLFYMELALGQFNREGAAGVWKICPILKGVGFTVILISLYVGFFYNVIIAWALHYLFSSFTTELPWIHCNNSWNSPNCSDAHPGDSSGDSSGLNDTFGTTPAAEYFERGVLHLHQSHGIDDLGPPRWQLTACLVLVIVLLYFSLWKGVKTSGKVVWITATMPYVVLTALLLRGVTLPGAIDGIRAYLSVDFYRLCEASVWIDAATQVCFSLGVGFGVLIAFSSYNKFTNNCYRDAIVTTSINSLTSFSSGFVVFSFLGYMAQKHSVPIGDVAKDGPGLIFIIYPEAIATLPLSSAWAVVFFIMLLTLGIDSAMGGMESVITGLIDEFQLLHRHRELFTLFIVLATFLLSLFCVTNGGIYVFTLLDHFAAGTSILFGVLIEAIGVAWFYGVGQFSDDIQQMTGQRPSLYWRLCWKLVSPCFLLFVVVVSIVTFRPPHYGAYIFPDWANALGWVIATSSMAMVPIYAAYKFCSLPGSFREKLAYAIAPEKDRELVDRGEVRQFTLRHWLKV
Description: (§1) Inhibition of [3H]dopamine reuptake at human DAT expressed in HEK293 cells
Data set [3] has as its target Sodium-dependent noradrenaline transporter (Homo sapiens, UniProt P23975). The experiment in a line: biochemical.
Description: Inhibition of [3H]nisoxetine reuptake at human NET expressed in HEK293 cells
For data set [4], the target named is T1, Sodium-dependent dopamine transporter.
Description: as §1
Data set [5] has as its target T2, Histamine H1 receptor (Homo sapiens, UniProt P35367).
For data set [6], the target named is T2, Histamine H1 receptor. The experiment in a line: Inhibition of histamine H1 receptor.
Data set [7] in a line: Partition coefficient, log D at pH 7.4. It counts as physicochemical. The conditions noted are these: octanol/water.
Data set [8] can be described thus: pKa, dissociation constant of the compound. It counts as physicochemical.
Data set [9] relates to MDCK. The experiment in a line: Permeability from basolateral to apical side of P-gp expressing MDCK cell membrane at 10 uM. The conditions noted are these: dog. It counts as ADME, cell-based, Canis lupus familiaris.
Data set [10] has as its system Rattus norvegicus. The data set is described as follows: Increase in 5-hydroxytryptamine level in prefrontal cortex interstitial fluid of rat at 10 mg/kg, sc. In kind it is functional. The conditions noted are these: route subcutaneous.
Data set [11] concerns the target Sodium-dependent serotonin transporter (Rattus norvegicus, UniProt P31652). The experiment in a line: Inhibition of rat 5HTT expressed in HEK293 cells. It counts as cell-based.
The target of another data set is Cytochrome P450 3A4 (Homo sapiens, UniProt P08684). The data set is described as follows: Inhibition of CYP3A4. In kind it is ADME.
Chain of Cytochrome P450 3A4 (P08684 whole entry): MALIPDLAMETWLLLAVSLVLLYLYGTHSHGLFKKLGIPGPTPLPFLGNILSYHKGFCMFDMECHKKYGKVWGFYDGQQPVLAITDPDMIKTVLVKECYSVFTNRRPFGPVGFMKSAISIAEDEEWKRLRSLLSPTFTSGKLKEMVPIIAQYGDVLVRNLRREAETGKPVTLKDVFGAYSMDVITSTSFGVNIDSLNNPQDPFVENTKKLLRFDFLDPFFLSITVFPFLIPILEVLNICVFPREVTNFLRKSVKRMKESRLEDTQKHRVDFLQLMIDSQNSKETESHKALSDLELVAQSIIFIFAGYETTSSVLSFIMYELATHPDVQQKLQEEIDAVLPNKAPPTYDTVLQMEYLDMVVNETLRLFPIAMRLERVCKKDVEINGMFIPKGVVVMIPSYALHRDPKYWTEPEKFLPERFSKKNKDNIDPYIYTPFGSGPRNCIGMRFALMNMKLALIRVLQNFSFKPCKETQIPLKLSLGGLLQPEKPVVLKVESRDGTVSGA
In data set [12] the test system is Caco-2. The data set is described as follows: Permeability from basolateral to apical side of human Caco-2 cell membrane at 10 uM. In kind it is ADME, cell-based. Conditions: caco-2, 10 µM. In general terms: Caco-2 monolayers are a common model of the intestinal barrier.
The target in another data set is T3, Cytochrome P450 1A2 (Homo sapiens, UniProt P05177).
T3 sequence (P05177 whole entry): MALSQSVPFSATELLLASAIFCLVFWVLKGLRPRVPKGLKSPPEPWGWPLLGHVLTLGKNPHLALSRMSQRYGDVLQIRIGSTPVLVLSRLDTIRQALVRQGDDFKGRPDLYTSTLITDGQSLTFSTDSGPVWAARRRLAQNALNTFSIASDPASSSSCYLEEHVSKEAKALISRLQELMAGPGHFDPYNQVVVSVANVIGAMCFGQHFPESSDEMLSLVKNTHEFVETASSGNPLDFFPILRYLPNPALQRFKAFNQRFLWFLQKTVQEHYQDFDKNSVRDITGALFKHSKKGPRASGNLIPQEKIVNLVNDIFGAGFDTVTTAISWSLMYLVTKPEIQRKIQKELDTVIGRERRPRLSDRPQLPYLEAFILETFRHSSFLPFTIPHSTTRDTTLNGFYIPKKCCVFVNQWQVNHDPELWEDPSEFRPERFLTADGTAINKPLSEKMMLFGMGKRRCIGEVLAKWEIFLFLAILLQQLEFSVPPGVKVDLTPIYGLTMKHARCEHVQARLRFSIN
The experiment in a line: Inhibition of CYP1A2. In kind it is ADME.

Data set [13] has as its target T2, Histamine H1 receptor. The experiment in a line: Inhibition of histamine H1 receptor at 10 uM.
A short description of data set [14]: Inhibition of calcium channel L type at diltiazem site.
Data set [15] concerns the target Voltage-gated inwardly rectifying potassium channel KCNH2 (Homo sapiens, UniProt Q12809). The experiment in a line: Displacement of [3H]dofetilide from human ERG. On the technique in general: In a radioligand displacement assay an active substance lowers the binding of a labelled ligand.
For data set [16], the system named is Caco-2. The data set is described as follows: Permeability from apical to basolateral side of human Caco-2 cell membrane at 10 uM. The conditions noted are these: caco-2, 10 µM. In kind it is ADME, cell-based.
The target in data set [17] is Norepinephrine transporter (Rattus norvegicus, UniProt Q9WTR4). The experiment in a line: Inhibition of rat NET expressed in HEK293 cells. In kind it is cell-based.
Chain of Norepinephrine transporter (Q9WTR4 whole entry): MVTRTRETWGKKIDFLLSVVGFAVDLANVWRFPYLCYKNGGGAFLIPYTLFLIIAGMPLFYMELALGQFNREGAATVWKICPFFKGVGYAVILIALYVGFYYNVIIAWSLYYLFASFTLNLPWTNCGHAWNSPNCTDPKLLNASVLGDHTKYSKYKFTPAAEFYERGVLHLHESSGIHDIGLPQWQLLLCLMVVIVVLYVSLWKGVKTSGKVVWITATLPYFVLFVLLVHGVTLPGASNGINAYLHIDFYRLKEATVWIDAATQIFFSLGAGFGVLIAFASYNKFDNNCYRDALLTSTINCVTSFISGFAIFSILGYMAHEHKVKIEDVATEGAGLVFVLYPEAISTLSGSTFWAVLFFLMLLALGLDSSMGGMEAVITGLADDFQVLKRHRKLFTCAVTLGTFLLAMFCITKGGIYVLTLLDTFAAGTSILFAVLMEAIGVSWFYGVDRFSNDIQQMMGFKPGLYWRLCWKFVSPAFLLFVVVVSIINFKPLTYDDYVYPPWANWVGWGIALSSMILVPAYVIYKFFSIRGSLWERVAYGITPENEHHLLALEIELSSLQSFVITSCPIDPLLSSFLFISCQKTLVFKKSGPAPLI
Data set [18] can be described thus: Metabolic stability in human hepatocytes. In kind it is ADME, cell-based, Liver, Hepatocyte.
For another data set, the target named is Cytochrome P450 2C19 (Homo sapiens, UniProt P33261). The experiment in a line: Inhibition of CYP2C19. In kind it is ADME.
Chain of Cytochrome P450 2C19 (P33261 whole entry): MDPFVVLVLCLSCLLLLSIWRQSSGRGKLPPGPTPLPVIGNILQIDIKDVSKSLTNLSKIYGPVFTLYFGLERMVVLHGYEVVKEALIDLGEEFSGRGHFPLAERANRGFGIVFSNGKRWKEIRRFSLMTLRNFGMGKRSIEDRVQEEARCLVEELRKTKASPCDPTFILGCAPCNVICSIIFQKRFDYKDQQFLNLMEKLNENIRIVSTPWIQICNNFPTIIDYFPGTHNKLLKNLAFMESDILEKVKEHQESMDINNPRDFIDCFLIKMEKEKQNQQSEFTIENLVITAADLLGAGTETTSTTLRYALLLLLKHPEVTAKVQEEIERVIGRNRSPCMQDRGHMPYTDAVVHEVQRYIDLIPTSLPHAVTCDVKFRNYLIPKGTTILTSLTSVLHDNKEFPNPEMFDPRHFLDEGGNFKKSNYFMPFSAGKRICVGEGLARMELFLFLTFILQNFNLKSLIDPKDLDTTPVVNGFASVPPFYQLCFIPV
Data set [19] can be described thus: Inhibition of sodium channel site 2.
The next data set has as its target Cytochrome P450 2C9 (Homo sapiens, UniProt P11712). The experiment in a line: Inhibition of CYP2C9. It counts as ADME.
Data set [20] has as its system Rattus norvegicus. The data set is described as follows: Increase in noradrenaline level in prefrontal cortex interstitial fluid of rat at 10 mg/kg, sc. It counts as functional. The conditions noted are these: route subcutaneous.
The next data set has as its target Cytochrome P450 2D6 (Homo sapiens, UniProt P10635). The experiment in a line: Inhibition of CYP2D6. In kind it is ADME.
Data set [21] can be described thus: Metabolic stability in human liver microsomes. In kind it is ADME, Microsome.
The test system of data set [22] is MDCK. The experiment in a line: Permeability from apical to basolateral side of P-gp expressing MDCK cell membrane at 10 uM. In kind it is ADME, cell-based, Canis lupus familiaris. Conditions: dog.

T2 sequence (P35367 whole entry): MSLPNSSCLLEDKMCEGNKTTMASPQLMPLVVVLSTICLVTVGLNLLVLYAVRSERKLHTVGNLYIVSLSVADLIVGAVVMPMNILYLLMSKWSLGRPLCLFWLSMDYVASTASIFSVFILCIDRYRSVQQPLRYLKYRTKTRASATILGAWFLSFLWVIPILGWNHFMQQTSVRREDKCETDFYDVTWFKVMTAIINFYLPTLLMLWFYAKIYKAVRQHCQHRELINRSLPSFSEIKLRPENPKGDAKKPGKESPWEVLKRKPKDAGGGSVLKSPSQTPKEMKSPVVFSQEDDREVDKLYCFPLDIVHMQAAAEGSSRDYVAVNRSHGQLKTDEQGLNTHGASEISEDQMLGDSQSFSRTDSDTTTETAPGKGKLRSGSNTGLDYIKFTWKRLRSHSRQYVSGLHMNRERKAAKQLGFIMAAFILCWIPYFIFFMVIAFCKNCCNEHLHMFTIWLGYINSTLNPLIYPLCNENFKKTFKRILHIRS
Chain of Sodium-dependent serotonin transporter (Homo sapiens, UniProt P31645) (P31645 whole entry): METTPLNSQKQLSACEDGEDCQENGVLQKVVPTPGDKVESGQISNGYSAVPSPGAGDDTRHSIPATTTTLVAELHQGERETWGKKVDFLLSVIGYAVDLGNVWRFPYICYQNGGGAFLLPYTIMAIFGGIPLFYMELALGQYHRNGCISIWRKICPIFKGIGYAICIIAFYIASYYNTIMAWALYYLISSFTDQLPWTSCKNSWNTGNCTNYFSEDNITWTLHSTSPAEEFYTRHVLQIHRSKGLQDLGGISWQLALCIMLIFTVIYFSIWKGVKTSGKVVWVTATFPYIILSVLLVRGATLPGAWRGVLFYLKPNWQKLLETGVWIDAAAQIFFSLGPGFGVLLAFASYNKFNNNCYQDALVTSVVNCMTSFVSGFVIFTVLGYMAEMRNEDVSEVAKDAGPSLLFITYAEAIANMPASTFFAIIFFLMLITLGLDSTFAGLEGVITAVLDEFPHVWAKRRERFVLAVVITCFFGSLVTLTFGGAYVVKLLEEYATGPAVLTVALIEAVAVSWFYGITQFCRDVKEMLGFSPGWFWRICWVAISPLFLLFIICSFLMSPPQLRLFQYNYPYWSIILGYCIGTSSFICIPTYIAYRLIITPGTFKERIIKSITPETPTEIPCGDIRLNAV
Chain of Sodium-dependent noradrenaline transporter (P23975 whole entry): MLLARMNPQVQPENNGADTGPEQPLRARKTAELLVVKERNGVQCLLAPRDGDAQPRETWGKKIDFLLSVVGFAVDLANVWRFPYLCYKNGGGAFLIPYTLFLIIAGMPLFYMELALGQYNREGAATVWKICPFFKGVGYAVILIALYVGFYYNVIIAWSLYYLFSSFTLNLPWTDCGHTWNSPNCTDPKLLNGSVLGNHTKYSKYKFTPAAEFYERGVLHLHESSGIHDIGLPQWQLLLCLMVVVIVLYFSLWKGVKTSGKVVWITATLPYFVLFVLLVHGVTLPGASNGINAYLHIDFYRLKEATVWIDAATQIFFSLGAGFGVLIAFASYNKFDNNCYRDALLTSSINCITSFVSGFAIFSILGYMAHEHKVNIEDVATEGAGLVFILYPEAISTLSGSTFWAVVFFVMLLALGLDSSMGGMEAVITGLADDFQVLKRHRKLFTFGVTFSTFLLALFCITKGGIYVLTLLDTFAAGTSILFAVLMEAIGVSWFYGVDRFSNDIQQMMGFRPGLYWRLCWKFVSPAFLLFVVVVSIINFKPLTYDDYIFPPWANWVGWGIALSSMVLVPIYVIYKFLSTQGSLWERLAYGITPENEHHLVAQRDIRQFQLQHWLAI
Chain of Cytochrome P450 2D6 (P10635 whole entry): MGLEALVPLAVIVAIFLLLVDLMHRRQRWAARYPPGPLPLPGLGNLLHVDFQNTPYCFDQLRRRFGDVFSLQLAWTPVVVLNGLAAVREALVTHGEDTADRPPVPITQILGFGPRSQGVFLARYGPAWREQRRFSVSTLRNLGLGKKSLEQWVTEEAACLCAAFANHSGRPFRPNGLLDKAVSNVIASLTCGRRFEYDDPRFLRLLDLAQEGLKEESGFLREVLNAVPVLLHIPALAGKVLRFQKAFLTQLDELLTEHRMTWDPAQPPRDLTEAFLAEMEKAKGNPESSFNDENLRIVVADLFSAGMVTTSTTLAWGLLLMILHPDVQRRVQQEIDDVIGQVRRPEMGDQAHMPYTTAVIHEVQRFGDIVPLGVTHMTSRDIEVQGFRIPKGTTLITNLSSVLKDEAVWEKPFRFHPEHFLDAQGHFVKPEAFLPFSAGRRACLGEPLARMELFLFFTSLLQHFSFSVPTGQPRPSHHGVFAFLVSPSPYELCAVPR
Chain of Cytochrome P450 2C9 (P11712 whole entry): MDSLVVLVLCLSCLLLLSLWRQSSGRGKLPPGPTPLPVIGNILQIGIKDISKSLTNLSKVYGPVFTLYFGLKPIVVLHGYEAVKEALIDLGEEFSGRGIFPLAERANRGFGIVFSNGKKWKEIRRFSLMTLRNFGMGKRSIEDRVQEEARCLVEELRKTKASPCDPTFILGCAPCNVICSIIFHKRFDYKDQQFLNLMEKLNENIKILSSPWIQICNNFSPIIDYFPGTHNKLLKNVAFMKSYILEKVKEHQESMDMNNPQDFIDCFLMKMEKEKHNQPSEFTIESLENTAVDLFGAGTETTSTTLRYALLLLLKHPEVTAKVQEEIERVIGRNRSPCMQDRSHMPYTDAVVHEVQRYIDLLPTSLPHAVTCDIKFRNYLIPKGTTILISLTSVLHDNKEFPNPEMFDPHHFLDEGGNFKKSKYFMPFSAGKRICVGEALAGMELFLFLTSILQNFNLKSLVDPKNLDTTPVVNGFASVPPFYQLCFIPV

A word on the Ki: it is the equilibrium dissociation constant of an inhibitor or competing ligand from its target. Consider `CCOc1c(Cl)cccc1OC(c1ccccc1)C1CNCCO1` (racemic; syn), for which the Ki was 240 nM in data set [1], more than 10 µM in data set [2] and 275 nM in data set [3].
As for `COc1cc(Cl)ccc1O[C@@H](c1ccc(F)cc1)[C@@H]1CNCCO1`, the Ki in [1] amounted to 62 nM; in [3], 29 nM.
In data set [1], `COc1cc(Br)ccc1O[C@@H](c1ccccc1)[C@@H]1CNCCO1` displayed a Ki of 30 nM.
Turning to `COc1cc(Cl)ccc1O[C@@H](c1ccccc1C)[C@@H]1CNCCO1`, the Ki was found to be 70 nM in [1] and 84 nM in data set [3].
Turning to `COc1cc(Cl)ccc1O[C@H](c1ccccc1)[C@H]1CNCCO1`, the Ki was found to be 1790 nM in data set [4] and 26 nM on Histamine H1 receptor [5].
Regarding `COc1cc(Cl)ccc1O[C@@H](c1ccc(C)cc1)[C@@H]1CNCCO1`, the Ki in data set [4] was found to be 1650 nM; in data set [1] it was 88 nM; in [3], 180 nM.
For `c1ccc([C@@H](Oc2cccc3c2OCC3)[C@H]2CNCCO2)cc1`, the Ki is 5750 nM in [4], 20 nM in [1], 10 nM on Histamine H1 receptor [5] and 350 nM in [3].
Regarding `CCOc1c(Cl)cccc1OC(c1ccccc1)C1CNCCO1` (racemic; anti), the values for the Ki in data set [4], in [1] and in [3] were more than 10000 nM, 340 nM and 1490 nM, respectively.
As to `COc1cc(C(F)(F)F)ccc1O[C@@H](c1ccccc1)[C@@H]1CNCCO1`, the Ki in data set [1] worked out at 41 nM; in [3] it was 160 nM.
On to `Fc1cccc(O[C@@H](c2ccccc2)[C@@H]2CNCCO2)c1F`, for which the Ki in data set [4] was determined as 2600 nM; in [1], 3390 nM; in [3], 10 nM. Besides, at Histamine H1 receptor [6], the result was inactive.
As to `COc1cc(Cl)ccc1O[C@@H](c1ccccc1F)[C@@H]1CNCCO1`, the figures for the Ki in data set [1] and in [3] were 70 nM and 22 nM, respectively.
For the molecule `Cc1cc(F)ccc1O[C@@H](c1ccccc1)[C@@H]1CNCCO1`, the results for the Ki in data set [4], in data set [1] and in [3] were 1250 nM, 185 nM and 18 nM, respectively. At Histamine H1 receptor [6], the outcome was inactive.
In data set [4], `COc1cc(Cl)ccc1OC(c1ccccc1)C1CNCCO1` (racemic; anti) showed an inhibition constant (Ki) of 2200 nM.
On to `Clc1cccc(O[C@@H](c2ccccc2)[C@@H]2CNCCO2)c1Cl`, for which the Ki came out at 420 nM in data set [4], 100 nM in [1] and 17 nM in [3].
Consider `COc1cc(C#N)ccc1O[C@@H](c1ccccc1)[C@@H]1CNCCO1`, for which the Ki in data set [1] amounted to 110 nM; in data set [3] it was 210 nM.
Take `COc1ccc(O[C@@H](c2ccccc2)[C@@H]2CNCCO2)c(Cl)c1`: the Ki is 1090 nM in [4], 96 nM in data set [1] and 28 nM in [3].
`Fc1ccc(O[C@@H](c2ccccc2)[C@@H]2CNCCO2)c(Cl)c1` returned a Ki in data set [4] of 1170 nM. Also, the result on Histamine H1 receptor [6] was inactive.
On to `CCOc1cc(Cl)ccc1OC(c1ccccc1)C1CNCCO1` (racemic; syn), for which the Ki in data set [4] came out at 1540 nM; in data set [1], 60 nM; in data set [3], 15 nM.
Regarding `Fc1cccc(O[C@H](c2ccccc2)[C@H]2CNCCO2)c1F`, the Ki came out at 380 nM in data set [4], 12 nM in data set [1], 10 nM on Histamine H1 receptor [5] and 130 nM in data set [3].
Regarding `COc1cc(Cl)ccc1O[C@@H](c1cccc(C)c1)[C@@H]1CNCCO1`, the Ki in data set [1] is 69 nM; in data set [3], 16 nM.
By logD is commonly meant lipophilicity at a set pH, counting ionised and neutral species. A lower logD goes with lower lipophilicity. A word on the pKa: it is the pH at which an ionisable group is half protonated. A high value points to a weaker acid or stronger base. In data set [4], `COc1cc(Cl)ccc1OC(c1ccccc1)C1CNCCO1` (racemic; syn) gave a Ki of 5050 nM. In addition, the logD in data set [7] amounted to 1.9. Further, the pKa in [8] stood at 7.7.
As to `COc1cc(F)ccc1O[C@@H](c1ccccc1)[C@@H]1CNCCO1`, the Ki in data set [4] stood at 3080 nM; in [1], 740 nM; in data set [3], 6 nM. Also, the result at Histamine H1 receptor [6] was inactive.
Regarding `COc1cc(Cl)ccc1O[C@@H](c1cccc(F)c1)[C@@H]1CNCCO1`, the Ki in [4] was 10800 nM; in data set [1], 58 nM; in data set [3] it was 9 nM.
In the same order, the values of `CCOc1cc(Cl)ccc1OC(c1ccccc1)C1CNCCO1` (racemic; anti) are 1670 nM, 220 nM and 390 nM.
With `Fc1ccc(O[C@H](c2ccccc2)[C@H]2CNCCO2)c(Cl)c1`, the Ki in [4] amounted to 760 nM; at Histamine H1 receptor [5] it was 10 nM.
`Cc1cc(F)ccc1O[C@H](c1ccccc1)[C@H]1CNCCO1`: the Ki in [4] was determined as 950 nM; in data set [1], 34 nM; on Histamine H1 receptor [5], 10 nM; in data set [3] it was 860 nM.
For `c1ccc([C@H](Oc2cccc3c2OCC3)[C@@H]2CNCCO2)cc1`, the Ki in data set [1] is 1800 nM; in data set [3], 12 nM. Moreover, the result at Histamine H1 receptor [6] was inactive.
`COc1cc(F)ccc1O[C@H](c1ccccc1)[C@H]1CNCCO1`: the Ki worked out at 22 nM in data set [1], 10 nM at Histamine H1 receptor [5] and 610 nM in [3].
A word on the IC50: it is the concentration needed to halve the response being measured. High values mean lower potency, low ones higher potency. As a reminder, the inhibition is the drop in the measured response relative to a control, in per cent. For orientation: half-life means the time in which the quantity being followed falls by half. A low value points to rapid decline. In the case of `COc1cc(Cl)ccc1O[C@@H](c1ccccc1)[C@@H]1CNCCO1`, the Papp in the data set with MDCK [9] is reported as 35 10^-6/cm; with Caco-2 [12], 16 10^-6/cm; in the data set with Caco-2 [16], 18 10^-6/cm; with MDCK [22], 22 10^-6/cm. The Activity with Rattus norvegicus [10] is 160%; in the data set on Rattus norvegicus [20], 170%. Also, the Ki is 1570 nM in [4]; 59 nM in data set [11]; 2000 nM in data set [14]; 3.3 µM in data set [15]; 6 nM in data set [17]; 1200 nM in data set [19]. Also, the IC50 on Cytochrome P450 3A4, at Cytochrome P450 1A2, against Cytochrome P450 2C19, at Cytochrome P450 2C9 and on Cytochrome P450 2D6 was more than 29 µM in each case. This molecule registered an inhibition against Histamine H1 receptor [13] of less than 20%. In addition, the half-life is 186 min in data set [18] and more than 120 min in [21].
